According to patent US9265735B2, “Methods for screening to identify therapeutic agents for Alzheimer's disease and use thereof” (New York University, priority 2010, dated 2016):
Entries after “also recorded” stand apart in the source; their conditions may differ.

Assays:
PS1KO blastocysts = assay: Lysosomal pH measurement with Dextran conjugated Lysosensor Yellow/Blue in PS1KO cells; assay type: cell-based, Murine; details: PS1KO cells
Method: For results presented in Example 1, quantification of lysosomal pH was determined using Dextran conjugated Lysosensor Yellow/Blue DND-160 (Invitrogen) as follows. Wild Type and PS1KO blastocysts were grown in High Glucose DMEM+15% FBS with antibiotics to ˜90% confluency. Cells were then trypsinized, harvested (1×10^6 cells/ml) and loaded with 1 mg/ml of Lysosensor-dextran for 1 hour at 37° C. with 5% CO2. The cells were then washed 3× in HBSS and aliquoted at […] into a black 96-well microplate. pH calibration was performed according to the protocol established by Diwu et al (Diwu et al., (1999). Chem Biol 6, 411-418). Briefly, wild type and PS1KO blastocysts were treated with 10 μM monensin and 10 uM nigericin in MES buffer (5 mM NaCl, 115 mM KCL, 1.3 mM MgSO4, 25 mM MES), with the pH adjusted to a range from 3.5-7.0. The samples were read in a Wallac Victor 2 fluorimeter (Perkin Elmer) with excitation at 355 nm. The ratio of emission 440/535 nm was then calculated for each sample. The pH values were determined from the linear standard curve generated via the pH calibration samples.
In a more particular embodiment, quantification of lysosomal pH is determined using Dextran conjugated Lysosensor Yellow/Blue (Invitrogen) as follows. 3000 Wild Type and PS1KO blastocysts were seeded in multiple wells of black, clear bottom tissue culture treated 96 well dish and grown in High Glucose DMEM+15% FBS with antibiotics to ˜90% confluency (˜24 hours). 2 ul of 0.5 mg/ml lysosensor-dextran (1:100 dilution of a 5 mg/ml stock) was added and incubated for 1 hour at 37° C. with 5% CO2. The cells were then washed 3× in HBSS. See also methods and results set forth herein below in Example 2. This modified protocol represents an optimized protocol for the purposes set forth herein.
Quantification of lysosomal pH was determined using Dextran conjugated Lysosensor Yellow/Blue (Invitrogen). 3000 Wild Type and PS1KO blastocysts were seeded in multiple wells of black, clear bottom tissue culture treated 96 well dish and grown in High Glucose DMEM+15% FBS with antibiotics to ˜90% confluency (˜24 hours). 2 ul of 0.5 mg/ml lysosensor-dextran (1:100 dilution of a 5 mg/ml stock) was added and incubated for 1 hour at 37° C. with 5% CO2. The cells were then washed 3× in HBSS.
Performed according to the protocol established by Diwu et al (supra). Briefly, wild type and PS1KO blastocysts were treated with 10 uM monensin and 10 uM nigericin in MES buffer (5 mM NaCl, 115 mM KCL, 1.3 mM MgSO4, 25 mM MES), with the pH adjusted to a range from 3.5-7.0 for 7-10 min prior to lysosensor addition (the additional hour in the buffer seems to have no effect), these cells are not washed in HBSS since permeabilization with ionophores makes them susceptible to detachment.
The samples were read in a Wallac Victor 2 fluorimeter (Perkin Elmer) with excitation at 355 nm. The ratio of emission 440 nm/535 nm was then calculated for each sample. pH values were determined from the linear std curve generated via the pH calibration samples.

Cat B = Cat B activity by MagicRed-Cathepsin B (MR-Cat B) in PS1KO cells; assay type: cell-based, Murine; details: PS1KO cells; 200 μM, 6 h
Method: Immunocytochemistry was performed as previously described (Yu et al., 2005). Secondary antibodies used were from Invitrogen: goat anti-mouse/rabbit/rat Alexa Fluor 488 and goat anti-mouse/rabbit/rat Alexa Fluor 568. Cells were imaged using a plan-Apochromat 40× or 100×/1.4 oil DIC objective lens on the laser scanning confocal microscope, LSM 510 META, with LSM software v3.5 (Carl Zeiss MicroImaging Inc). Images were analysed using ImageJ program (NIH). Organelles with low internal pH were labeled by LysoTracker DND-99 dye (Invitrogen) at the final 100 nM for 30 min. Following 4% PFA fixation, cells were further counter stained with Cat D, LMAP1, or LC3 antibody for 4 hrs then visualized with Alexa Fluor 488 conjugated secondary antibody. Active Cat D was labeled by adding Bodipy-FL-pepstatin A directly to the medium at a final concentration of 1 μg/ml for 1 hr. Following 4% PFA fixation, cells were counter stained with Cat D antibody for 4 hrs and visualized with Alexa Fluor 568 conjugated secondary antibody. […] Cells were incubated for 30 min with MR-Cathepsin B prior to mounting them under the confocal microscope. […]
Active Cat D was labeled by adding Bodipy-FL-pepstatin A directly to the medium at a final concentration of 1 mg/ml for 1 hr. […] Cat B staining with MagicRed-Cathepsin B was also measured fluorometrically with a Wallac Victor 2 fluorometer.

LC3 puncta = LC3 puncta by LC3 immunocytochemistry in PS1KO cells; assay type: cell-based, Murine; details: 200 μM, 6 h
Method: Immunocytochemistry was performed as previously described (Yu et al., 2005). Secondary antibodies used were from Invitrogen: goat anti-mouse/rabbit/rat Alexa Fluor 488 and goat anti-mouse/rabbit/rat Alexa Fluor 568. Cells were imaged using a plan-Apochromat 40× or 100×/1.4 oil DIC objective lens on the laser scanning confocal microscope, LSM 510 META, with LSM software v3.5 (Carl Zeiss MicroImaging Inc). Images were analysed using ImageJ program (NIH). Organelles with low internal pH were labeled by LysoTracker DND-99 dye (Invitrogen) at the final 100 nM for 30 min. Following 4% PFA fixation, cells were further counter stained with Cat D, LMAP1, or LC3 antibody for 4 hrs then visualized with Alexa Fluor 488 conjugated secondary antibody. Active Cat D was labeled by adding Bodipy-FL-pepstatin A directly to the medium at a final concentration of 1 μg/ml for 1 hr. Following 4% PFA fixation, cells were counter stained with Cat D antibody for 4 hrs and visualized with Alexa Fluor 568 conjugated secondary antibody. […] Cells were incubated for 30 min with MR-Cathepsin B prior to mounting them under the confocal microscope. To block v-ATPase proton pump activity, ammonium chloride (NH4Cl) was added directly to the medium at a final concentration of 20 mM for 6 hrs prior to LysoTracker addition.

p62 = p62 accumulation in PS1KO cells; assay type: cell-based, Murine; details: 200 μM, 6 h
Method: Immunoblotting was performed as previously described (Yu et al., 2005). Briefly, cells used for Western blot analysis were lysed in buffer containing 50 mM Tris (pH=7.4), 150 mM NaCl, 1 mM EDTA, 1 mM EGTA, 1% Triton X-100 and 0.5% Tween-20 with protease and phosphatase inhibitors. Following electrophoresis on 4-20% gradient gel (Invitrogen), proteins were transferred onto 0.45 μm PVDF membranes (Millipore) and the membrane was incubated overnight in primary antibody then incubated with HRP conjugated secondary antibody. The blot was developed by ECL-kit (GE Healthcare). To assess v-ATPase V0a subunit glycosylation, lysate from WT and PS1KO cells were either treated for 24 hrs at 37° C. with PNGase F or O-glycanase using an enzymatic deglycosylation kit according to the manufacturer's instructions (PROzyme) or with Endo H (New England Biolabs) for 24 hrs at 37° C. Total glycoproteins were isolated using Glycoprotein Isolation Kit, ConA according to the manufacturer's instructions (Thermo Scientific).

[1] = system: autophagic vacuoles (AVs); assay: AV accumulation by EM morphometry in PS1KO cells; assay type: cell-based, Murine; details: 200 μM, 6 h
Method: Following treatments, cells were prepared for EM as previously described and AVs, identified using previous morphological criteria (Yu et al., 2005), were classified and counted on electron micrographs (7900× print magnification) of 20 EM images from different lines in each experimental group.

tau = details: rats; bilateral injection into the hippocampus; cited from earlier work
[2] = in vivo; cited from earlier work

CC(C)NCC(O)c1ccc(O)c(O)c1 (centres unmarked) [isoproterenol]
lysosomal pH (PS1KO blastocysts; 200 μM, 6 h): restored to WT levels
effect on elevated lysosomal pH in PS1KO cells (PS1KO blastocysts; FIG. 10A/G): normal levels or even hyperacidic levels; also recorded: restored to WT levels
Cat B activity as measured by MR-Cat B (Cat B): restored to WT levels
LC3 puncta accumulation determined by LC3 ICC (LC3 puncta): reversed
p62 accumulation (p62): reversed
AV accumulation by EM morphometry (total area occupied by AVs per EM field) [1]: reversed
tau phosphorylation and spatial memory (tau): induces Alzheimer-like hyperphosphorylation of tau and spatial memory defects
crossing of the blood brain barrier (BBB) [2]: cross the blood brain barrier
